For experiment [1], the system named is E. coli of an unknown strain. Put plainly: pH and ORP growth curves of E. coli with Ciprofloxacin in diagnostic device 102 (FIGS. 7A and 7B). In kind it is cell-based. The text has this:
FIGS. 7A and 7B illustrate pH growth curves and ORP growth curves of E. coli in the presence of various concentrations of the antibiotic Ciprofloxacin, respectively. The growth curves were generated using a computing device 158 coupled to a parameter analyzer 156 coupled to the diagnostic device 102. Similar types of growth curves can also be generated using the computing device 158 coupled to the parameter analyzer 156 coupled to the diagnostic device 202.
An inoculum solution 110 comprising E. coli of an unknown strain (e.g., a positive blood culture (PBC) diluted to 5×10^5 colony-forming units (CFU)/mL of E. coli in Mueller Hinton (MH) broth) was introduced to the sample receiving space 112 of the diagnostic device 102. The inoculum solution 110 was allowed to fill the plurality wells 120 of the diagnostic device 102 including the growth control wells 134 and a number of active electrode wells 136. A water immiscible liquid 152 was then introduced into the sample receiving space 112 to seal the wells 120 and the entire diagnostic device 102 was incubated at an elevated temperature.
The computing device 158 generated the growth curves based on changes in the solution characteristics (e.g., changes in pH of the pH electrode wells 126 and changes in ORP of the ORP electrode wells 128) of the inoculum solution 110 within the growth control wells 134 and the various active electrode wells 136. The growth control wells 134 comprised at least one pH electrode well 126 and at least one ORP electrode well 128 devoid of the antibiotic. The active electrode wells 136 comprised dried Ciprofloxacin at concentrations of 2 μg/mL, 4 μg/mL, 8 μg/mL, 16 μg/mL, and 32 μg/mL.
This curve pattern or shape can be attributed to cellular activity undertaken by the active E. coli within the growth control wells 134. FIGS. 7A and 7B also illustrate that the three growth curves generated from measurements of the inoculum solution 110 within the active electrode wells 136 comprising 2 μg/mL and 4 μg/mL of Ciprofloxacin mimicked and followed the growth pattern of the inoculum solution 110 within the growth control wells 134.

The subject of experiment [2] is E. coli of an unknown strain. Put plainly: pH growth curves of E. coli with Levofloxacin in diagnostic device 102 (FIG. 6). The class given is cell-based. To be noted: Escherichia coli, E. coli diluted in Mueller Hinton broth, wells with 1, 2 and 4 μg/mL, read-out: minimum inhibitory concentration (MIC). The source says:
FIG. 6 illustrates pH growth curves of E. coli in the presence of various concentrations of the antibiotic Levofloxacin. The growth curves were generated using a computing device 158 coupled to a parameter analyzer 156 coupled to the diagnostic device 102. Similar types of growth curves can also be generated using the computing device 158 coupled to the parameter analyzer 156 coupled to the diagnostic device 202. An inoculum solution 110 comprising E. coli of an unknown strain (diluted in Mueller Hinton (MH) broth) was introduced to the sample receiving space 112 of the diagnostic device 102. The inoculum solution 110 was allowed to fill the plurality wells 120 of the diagnostic device 102 including the growth control wells 134 and a number of active electrode wells 136. A water immiscible liquid 152 was then introduced into the sample receiving space 112 to seal the wells 120 and the entire diagnostic device 102 was incubated at an elevated temperature. The computing device 158 generated the growth curves based on a change in the pH of the inoculum solution 110 within a growth control well 134 and three active electrode wells 136. The growth control well 134 comprised a pH electrode 130 within the well and was devoid of the antibiotic. […]

≈ marks a conversion by molar mass, not a printed value.

Regarding `O=C(O)c1cn(C2CC2)c2cc(N3CCNCC3)c(F)cc2c1=O` [Ciprofloxacin], the “susceptibility of the strain at the concentration” value is on record as “resistant or not susceptible” in experiment [1] (Ciprofloxacin 2 μg/mL and 4 μg/mL, curves followed growth control); “intermediate susceptibility” in experiment [1] (Ciprofloxacin 8 μg/mL, delayed change in pH and ORP). For the same compound, the “growth of E. coli in active electrode wells” value in experiment [1] (Ciprofloxacin 16 μg/mL and 32 μg/mL, curves substantially flat lines) was “no noticeable growth”. For the same compound, the “susceptibility of the strain (overall)” value in experiment [1] (based on MIC from pH and ORP growth curves) is on record as “generally resistant”.

In the case of `C[C@H]1COc2c(N3CCN(C)CC3)c(F)cc3c(=O)c(C(=O)O)cn1c23` [Levofloxacin], in experiment [2], the MIC was determined as 1 µg/mL (≈ 2.77 µM).

The values above are taken from patent US12129509B2, “Apparatus, systems, and methods for determining the susceptibility of infectious agents to anti-infectives” (priority 2018, dated 2024).
